Laboratory results: patent publication US20100222285A1, “METHOD OF CONTROLLING THE PROLIFERATION OF VASCULAR ENDOTHELIAL CELLS AND INHIBITING LUMEN FORMATION” (Rare Sugar Production Technical Research Laboratories, LLC, priority 2004, published 2010)
“Also recorded” adds a separate entry of the source. Where two headings read alike, the source gives them in different places.

Columns and labels:
[1] = system: Human umbilical cord vascular endothelial cells (HUVEC); assay: Experiment of growth: HUVEC cell number by WST-8 after 48 hrs; type: cell-based; details: for inhibition at 20000 µM: Homo sapiens, HUVEC, 20 mM, read-out: inhibition of growth to the control group; for antagonism of the growth inhibitory effect by D-glucose: co-existence of 20 mM D-glucose
Protocol: Human umbilical cord vascular endothelial cells (HUVEC) were purchased as primary cultured cells from KURABO (Kurabo Co., Osaka, Japan) and the cells up to P8 were used in experiments. The cells were inoculated on a 96-well plate at a rate of 3000 cells/well, and allowed to stand in Humedia EG2 (Kurabo) overnight (37° C., 5% CO2). Next morning, the medium was replaced by 90 μl of 2% FBS-containing Humedia EB2 (Kurabo), to which was then added 10 μl of additive, and after a lapse of 48 hrs the number of cells was counted. No medium was exchanged during this period. In counting, a tetrazolium salt WST-8 was added to each well (0.5 mM), and after 2 hrs the absorbance was measured at 450 nm. The tetrazolium salt added was reduced with an intracellular dehydrogenase to yield formazan depending on the number of cells in the well. In advance, the absorbance at 450 nm was confirmed to show a linearity within the range of 500 to 12000 cells in the well.

[2] = system: human endothelial cells and fibroblasts; assay: Experiment of luminal formation: concurrent culture, CD31 staining, area of the lumen; type: cell-based; details: for effect on the luminal formation: Example 1, 0.1-20 mM, 10 days; for effect on the luminal formation of HUVEC: Example 2 (36 species), incubation for 10 days; for inhibition at 20000 µM / inhibition at 1000 µM / inhibition at 2500 µM: Homo sapiens; for inhibition at 20000 µM: 20 mM; for antagonism of the luminal formation inhibitory effect by D-glucose: co-existence of 20 mM D-glucose; for inhibition of the acceleration of luminal formation by VEGF: with VEGF; for inhibition at 1000 µM: 1 mM; for inhibition at 2500 µM: 2.5 mM
Protocol: Using a concurrent culture system of human endothelial cells and fibroblasts planted on a 24-well plate (Kurabo Co., Osaka, Japan), the culture medium was replaced by culture media containing a variety of additives at the early stage of luminal formation. Every 3 days, the medium was exchanged with the additive; 10 day after incubation, the endothelial cell only was stained by using mouse anti-human CD31 antibody (Kurabo Co., Osaka, Japan), goat anti-mouse IgG AlkP Conjugate (Kurabo Co., Osaka, Japan), and BCPI (5-bromo-4-chloro-3-indolyl phosphate) (Kurabo Co., Osaka, Japan) to photograph. The visualized area of the lumen was measured by means of NIH image software.

[3] = cited from earlier work; for Ald type (%): aldehyde structure; for Pira β (%): pyranose β-anomer; for Fra α (%): furanose α-anomer; for Fra β (%): furanose β-anomer; for Pira α (%): pyranose α-anomer
[4] = Example 2 (36 species), 48 hours

| SMILES | effect on the growth of HUVEC ([1]; Example 1, 0.1-20 mM, 48 hrs) | effect on the luminal formation [2] | effect on the luminal formation of HUVEC [2] | antagonism of the luminal formation inhibitory effect by D-glucose [2] | effect on the growth of HUVEC [1, 4] | Pira β (%) [3] | further results |
| --- | --- | --- | --- | --- | --- | --- | --- |
| O=C[C@@H](O)[C@@H](O)[C@@H](O)[C@@H](O)CO [LAL, L-allose] | no influence | effect was confirmed | inhibitory effect was observed | antagonized | – | – | inhibition at 20000 µM [2]: 50 to 80% |
| O=C(CO)[C@@H](O)[C@@H](O)[C@@H](O)CO [LPS, L-psicose] | – | – | – | – | no remarkable effect | – | – |
| O=C[C@@H](O)[C@@H](O)[C@H](O)CO [Lyxose] | – | – | – | – | – | 28% | Ald type (%) [3]: 0.4%; C1/1C ([3]; chair form of pyranose α): mix |
| O=C[C@H](O)[C@@H](O)[C@H](O)CO [Xylose] | – | – | – | – | – | 63% | Ald type (%) [3]: 0.17% |
| O=C[C@@H](O)[C@H](O)[C@H](O)[C@H](O)CO [ALT, D-altrose] | no influence | effect was confirmed | inhibitory effect was observed | no apparent effect | – | – | inhibition at 20000 µM [2]: 50 to 80%; inhibition of the acceleration of luminal formation by VEGF [2]: inhibit the acceleration by VEGF |
| O=C[C@H](O)[C@H](O)[C@H](O)CO [Ribose] | – | – | – | – | – | 56% | Ald type (%) [3]: 8.5%; C1/1C ([3]; chair form of pyranose α): mix; C1/1C ([3]; chair form of pyranose β): mix; Fra α (%) [3]: 6%; Fra β (%) [3]: 18% |
| O=C[C@H](O)[C@H](O)[C@H](O)CO [RIB, D-ribose] | no influence | effect was confirmed | inhibitory effect was observed | no apparent effect | – | – | inhibition at 20000 µM [2]: 50 to 80%; inhibition of the acceleration of luminal formation by VEGF [2]: inhibit the acceleration by VEGF |
| O=C(CO)[C@@H](O)[C@H](O)[C@@H](O)CO [SOR, L-sorbose] | effect was confirmed; also recorded: inhibitory effect for growth | no influence | – | – | growth inhibition; also recorded: inhibitory effect was observed | – | inhibition at 20000 µM ([1]; 48 hrs): 40 to 80%; antagonism of the growth inhibitory effect by D-glucose [1]: no antagonism |
| O=C(CO)[C@@H](O)[C@@H](O)[C@H](O)CO [Tagatose] | – | – | – | – | – | 11% | Pira α (%) [3]: 89% |
| O=C[C@@H](O)[C@@H](O)[C@@H](O)CO [LRI, L-ribose] | no influence | effect was confirmed | inhibitory effect was observed | no apparent effect | – | – | inhibition at 20000 µM [2]: 50 to 80%; inhibition of the acceleration of luminal formation by VEGF [2]: inhibit the acceleration by VEGF |
| O=C[C@@H](O)[C@H](O)[C@H](O)CO [Arabinose] | – | – | – | – | – | 34% | Ald type (%) [3]: 0.28%; C1/1C ([3]; chair form of pyranose α): 1C; C1/1C ([3]; chair form of pyranose β): mix; Fra α + Fra β total (%) ([3]; furanose, total of α and β): total 3% |
| O=C[C@H](O)[C@H](O)[C@@H](O)[C@H](O)CO [GUL, D-gulose] | no influence | effect was confirmed | inhibitory effect was observed | no apparent effect | – | – | inhibition at 20000 µM [2]: 50 to 80%; inhibition of the acceleration of luminal formation by VEGF [2]: inhibit the acceleration by VEGF |
| O=C(CO)[C@@H](O)[C@H](O)[C@H](O)CO [Fructose] | – | – | – | – | – | 72% | C1/1C ([3]; chair form of pyranose α): mix; C1/1C ([3]; chair form of pyranose β): 1C; Pira α (%) [3]: 28% |
| O=CC[C@H](O)[C@H](O)CO [DRI, 2-deoxy-D-ribose] | effect was confirmed | effect was confirmed | inhibitory effect was observed; also recorded: strong action | no apparent effect | inhibitory effect was observed | – | inhibition at 20000 µM ([1]; 48 hrs): 40 to 80%; antagonism of the growth inhibitory effect by D-glucose [1]: no antagonism; inhibition at 1000 µM [2]: ~20%; inhibition at 2500 µM [2]: > 95%; inhibition of the acceleration of luminal formation by VEGF [2]: inhibit the acceleration by VEGF |
| O=C(CO)[C@@H](O)[C@@H](O)[C@H](O)CO [TAG, D-tagatose] | – | – | – | – | no remarkable effect | – | – |
| O=C(CO)[C@H](O)[C@H](O)[C@@H](O)CO [LTA, L-tagatose] | – | – | – | – | no remarkable effect | – | – |
| O=C(CO)[C@@H](O)[C@H](O)[C@H](O)CO [FRU, D-fructose] | – | – | – | – | no remarkable effect | – | – |
| O=C(CO)[C@H](O)[C@H](O)[C@H](O)CO [Psicose] | – | – | – | – | – | 67% | C1/1C ([3]; chair form of pyranose β): 1C; Pira α (%) [3]: 33% |
| O=C[C@H](O)C[C@H](O)[C@H](O)CO [3DG, 3-deoxy-D-glucose] | effect was confirmed | effect was confirmed | inhibitory effect was observed | no apparent effect | inhibitory effect was observed | – | effect on the growth of HUVEC ([1]; Example 1, 0.1-20 mM, 48 hrs, listed as 3-deoxy-D-glucose): inhibit both; inhibition at 20000 µM ([1]; 48 hrs): 40 to 80%; antagonism of the growth inhibitory effect by D-glucose [1]: antagonized; effect on the luminal formation ([2]; listed as 3-deoxy-D-glucose): inhibit both; inhibition at 20000 µM [2]: 50 to 80% |
| O=C(CO)[C@H](O)[C@@H](O)[C@H](O)CO [DSO, D-sorbose] | – | – | – | – | no remarkable effect | – | – |
| O=C[C@H](O)[C@H](O)[C@H](O)[C@H](O)CO [Allose] | – | – | – | – | – | 70% | Ald type (%) [3]: 1.38%; Fra α (%) [3]: 5%; Fra β (%) [3]: 7% |
| O=C[C@@H](O)[C@@H](O)[C@@H](O)[C@H](O)CO [TAO, D-talose] | no influence | effect was confirmed | inhibitory effect was observed | – | – | – | inhibition at 20000 µM [2]: 50 to 80% |
| O=C(CO)[C@H](O)[C@@H](O)[C@@H](O)CO [LFR, L-fructose] | – | – | – | – | no remarkable effect | – | – |
| O=CC[C@@H](O)[C@@H](O)CO [LDR, 2-deoxy-L-ribose] | effect was confirmed | effect was confirmed | inhibitory effect was observed; also recorded: strong action | no apparent effect | inhibitory effect was observed | – | inhibition at 20000 µM ([1]; 48 hrs): 40 to 80%; antagonism of the growth inhibitory effect by D-glucose [1]: no antagonism; inhibition at 1000 µM [2]: ~20%; inhibition at 2500 µM [2]: > 95%; inhibition of the acceleration of luminal formation by VEGF [2]: inhibit the acceleration by VEGF |
| O=C[C@H](O)[C@@H](O)[C@@H](O)[C@H](O)CO [Galactose] | – | – | – | – | – | 64% | Ald type (%) [3]: 0.082%; Fra α (%) [3]: trace; Fra β (%) [3]: trace |
| O=C[C@@H](O)[C@H](O)[C@@H](O)[C@H](O)CO [Idose] | – | – | – | – | – | 37% | C1/1C ([3]; chair form of pyranose α): mix; Fra α (%) [3]: 16%; Fra β (%) [3]: 16% |
